Experiments:
Axl [1] = molecular target: T1, Axl (Homo sapiens, UniProt P30530); test: Axl NanoBRET intracellular kinase assay (intracellular binding, Cell Binding); design: host or cells: HEK-293; details: HEK-293 cells transfected with Axl-NanoLuc fusion vector; 0.35 μM K-5 NanoBRET tracer
T1 sequence (P30530 26-894): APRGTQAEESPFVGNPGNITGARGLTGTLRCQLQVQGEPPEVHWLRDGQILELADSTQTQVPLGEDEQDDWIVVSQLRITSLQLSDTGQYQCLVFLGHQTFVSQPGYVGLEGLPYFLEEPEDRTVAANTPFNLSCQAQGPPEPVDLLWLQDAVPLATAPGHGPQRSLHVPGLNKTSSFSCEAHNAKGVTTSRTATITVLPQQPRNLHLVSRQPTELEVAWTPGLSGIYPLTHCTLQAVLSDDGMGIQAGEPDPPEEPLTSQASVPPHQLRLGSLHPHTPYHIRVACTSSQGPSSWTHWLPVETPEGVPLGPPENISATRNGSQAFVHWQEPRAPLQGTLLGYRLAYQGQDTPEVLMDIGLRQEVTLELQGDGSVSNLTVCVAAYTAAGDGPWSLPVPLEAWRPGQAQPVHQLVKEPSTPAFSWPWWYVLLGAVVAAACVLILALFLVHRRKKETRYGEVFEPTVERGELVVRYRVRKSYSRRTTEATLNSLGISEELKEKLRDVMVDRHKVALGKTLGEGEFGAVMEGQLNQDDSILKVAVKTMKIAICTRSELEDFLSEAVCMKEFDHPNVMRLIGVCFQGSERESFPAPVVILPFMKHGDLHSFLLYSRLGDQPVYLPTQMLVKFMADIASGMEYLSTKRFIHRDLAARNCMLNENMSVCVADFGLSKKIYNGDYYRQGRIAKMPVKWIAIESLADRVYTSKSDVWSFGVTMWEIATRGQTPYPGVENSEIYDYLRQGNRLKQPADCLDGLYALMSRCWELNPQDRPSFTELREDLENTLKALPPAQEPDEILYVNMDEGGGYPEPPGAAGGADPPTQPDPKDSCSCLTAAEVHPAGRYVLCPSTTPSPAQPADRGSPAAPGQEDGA
Description: Axl NanoBRET™ intracellular kinase assay (Promega, N2540) was performed according to manufacturer's recommendation. In brief, HEK-293 cells are transiently transfected with Axl-NanoLuc fusion vector (Promega, NV1071), utilizing Fugene HD transfection reagent (Promega, E2311) a day before experiment following manufacturer's recommendation.
The day of the assay, the cells were collected and resuspended in Opti-MEM media (ThermoFisher, 31985070) at 2e5 cells/mL concentration. Testing compounds were serial diluted and dispensed into a white 384 well polystyrene plate at 200 nL in 100% DMSO. 40 μL of resuspended cells is then added per well for a final condition of 8K cells/well with 0.5% DMSO. After one-hour compound pre-incubation at 37° C. and 5% CO2, cells were further incubated with 0.35 μM K-5 NanoBRET tracer for two-hours at 37° C. and 5% CO2. […] of 3× substrate plus Inhibitor solution was prepared according to kits manual and added to the cells followed by a 30 second pulse centrifugation spin. The plate was then immediately read utilizing an Envision (Perkin Elmer) plate reader. The BRET signal is measured by taking the ratio of the emissions reading at 610 nm and 450 nm. Compound binding is based on the decrease BRET signal caused by the displacement of the K-5 tracer. […] IC50 value of compounds was determined by 4-parameter non-linear regression fitting of percent activity in GraphPad Prism software.

Axl [2] = molecular target: T1, Axl; test: HTRF KinEASE-TK biochemical potency assay, AXL; design: purchased Invitrogen; details: 5 nM AXL, 700 μM ATP, 800 nM TK Substrate-biotin
Description: Purified recombinant human AXL, TYRO3 and MER proteins were purchased from Invitrogen™. 10 nM AXL, 2 nM TYRO3 or MER were incubated with varying concentrations of compounds in 50 mM HEPES, pH 7.4, 10 mM MgCl2, 0.01% BSA, 1 mM DTT and 2% DMSO in a total volume of 20 μl in a 384-well microplate (Corning™ #3640) at RT for 1 h. The AXL, TYRO3 and MER enzymatic reaction was initiated by transferring 10 μl of enzyme and compound mixture into 10 μl of 1.6 μM TK Substrate-biotin (HTRF® KinEASE-TK kit, Cisbio) and 1400 μM ATP pre-incubated in 50 mM HEPES, pH 7.4, 10 mM MgCl2, 0.01% BSA, 1 mM DTT in a 384-well microplate (Corning™ #3640) at RT, giving the final reaction conditions: 5 nM AXL, 1 nM TYRO3 or MER, 800 nM TK Substrate-biotin and 700 μM ATP in 50 mM HEPES, pH 7.4, 10 mM MgCl2, 0.01% BSA, 1 mM DTT and 1% DMSO with varying concentrations of compounds. Following 2 h incubation at RT, the AXL, TYRO3 and MER enzymatic reaction was stopped by transfer of 10 μl of reaction into 10 μl of detection mix (400 nM Streptavidin-XL665, 200-fold dilution TK Antibody-Cryptate and detection buffer, HTRF® KinEASE-TK kit, Cisbio) in a white 384-well microplate (Perkin Elmer, OptiPlate 384). After 1 h incubation at RT, the plate was put into a plate reader (Evision) to read at 665/620 nm (acceptor/donor) for HTRF. The value of the DMSO blank (MIN inhibition=100% activity) was used as a negative control. The positive control was established by adding 5 μl of enzyme and DMSO mixture into 10 μl of detection mix followed by addition of 5 μl of TK Substrate-biotin and ATP mixture (MAX inhibition=0% activity). To calculate the percent activity, Equation 1 was used. Ratio 665/620 is the value at a given compound concentration: […]

Row | SMILES | IC50 (Axl [1]) | IC50 (Axl [2])
1 | CC(C)(O)c1ccc(-c2n[nH]c3ncc(-c4ccc5c(c4)CCC(N4CCCC4)CC5)cc23)cc1Cl (centres unmarked) [Example 11, 2-(2-Chloro-4-{5-[7-(pyrrolidin-1-yl)-6,7,8,9-tetrahydro-5H-benzo[7]annulen-2-yl]-1H-pyrazolo[3,4-b]pyridin-3-yl}phenyl)propan-2-ol] | < 100 nM | < 100 nM
2 | CC(C)(O)c1ccc(-c2n[nH]c3ncc(-c4ccc5c(n4)CCC(N4CCCC4)CC5)cc23)cc1Cl (centres unmarked) [Example 60, 2-(2-Chloro-4-{5-[7-(pyrrolidin-1-yl)-5H,6H,7H,8H,9H-cyclohepta[b]pyridin-2-yl]-1H-pyrazolo[3,4-b]pyridin-3-yl}phenyl)propan-2-ol] | > 1000 nM | 100 to 1000 nM
3 | C[C@@H]1CCCN1C1(C)CCc2ccc(-c3cnc4[nH]nc(-c5ccc(C(C)(C)O)c(Cl)c5)c4c3)cc2CC1 (stereo partly drawn) [Example 57, 2-[2-Chloro-4-(5-{7-methyl-7-[(2R)-2-methylpyrrolidin-1-yl]-6,7,8,9-tetrahydro-5H-benzo[7]annulen-2-yl}-1H-pyrazolo[3,4-b]pyridin-3-yl)phenyl]propan-2-ol] | < 100 nM | < 100 nM
4 | C[C@H]1CCCN1C1CCc2ccc(-c3cnc4[nH]nc(-c5ccc(C(C)(C)O)c(Cl)c5)c4c3)cc2CC1 (stereo partly drawn) [Example 37, 2-(2-Chloro-4-(5-(7-((S)-2-methylpyrrolidin-1-yl)-6,7,8,9-tetrahydro-5H-benzo[7]annulen-2-yl)-1H-pyrazolo[3,4-b]pyridin-3-yl)phenyl)propan-2-ol] | < 100 nM | < 100 nM
5 | C[C@@H]1CCCN1C1(C)CCc2ccc(-c3cnc4[nH]nc(-c5ccc(C(N)=O)cc5)c4c3)cc2CC1 (stereo partly drawn) [Example 54, 4-(5-(7-Methyl-7-((R)-2-methylpyrrolidin-1-yl)-6,7,8,9-tetrahydro-5H-benzo[7]annulen-2-yl)-1H-pyrazolo[3,4-b]pyridin-3-yl)benzamide] | < 100 nM | < 100 nM
6 | C[C@@H]1CCCN1C1(C)CCc2ccc(-c3cnc4[nH]nc(-c5ccc(C(=O)N[C@@H]6CCOC6)cc5)c4c3)cc2CC1 (stereo partly drawn) [Example 99, 4-(5-{7-Methyl-7-[(2R)-2-methylpyrrolidin-1-yl]-6,7,8,9-tetrahydro-5H-benzo[7]annulen-2-yl}-1H-pyrazolo[3,4-b]pyridin-3-yl)-N-[(3R)-oxolan-3-yl]benzamide] | < 100 nM | < 100 nM
7 | C[C@@H]1CCCN1[C@H]1CCc2cc(-c3cnc4[nH]nc(-c5ccc(S(=O)(=O)C6CC6)cc5)c4c3)cnc2CC1 [Example 102, (2R)-1-[(7S)-3-{3-[4-(Cyclopropanesulfonyl)phenyl]-1H-pyrazolo[3,4-b]pyridin-5-yl}-5H,6H,7H,8H,9H-cyclohepta[b]pyridin-7-yl]-2-methylpyrrolidine] | > 1000 nM | 100 to 1000 nM
8 | CC1(N2CCC[C@H]2CO)CCc2ccc(-c3cnc4[nH]nc(-c5ccc(S(=O)(=O)C6CC6)cc5)c4c3)cc2CC1 (stereo partly drawn) [Example 4, [(2S)-1-(2-{3-[4-(Cyclopropanesulfonyl)phenyl]-1H-pyrazolo[3,4-b]pyridin-5-yl}-7-methyl-6,7,8,9-tetrahydro-5H-benzo[7]annulen-7-yl)pyrrolidin-2-yl]methanol] | < 100 nM | < 100 nM
9 | C[C@H]1CCCN1C1CCc2ccc(-c3cnc4[nH]nc(-c5ccc(S(=O)(=O)C6CC6)cc5)c4c3)cc2CC1 (stereo partly drawn) [Example 24, 3-(4-(Cyclopropylsulfonyl)phenyl)-5-(7-((S)-2-methylpyrrolidin-1-yl)-6,7,8,9-tetrahydro-5H-benzo[7]annulen-2-yl)-1H-pyrazolo[3,4-b]pyridine] | < 100 nM | < 100 nM
10 | COC1CCN(S(=O)(=O)c2ccc(-c3n[nH]c4ncc(-c5ccc6c(c5)CCC(C)(N5CCC[C@H]5C)CC6)cc34)cc2)CC1 (stereo partly drawn) [Example 103, 3-(4-((4-Methoxypiperidin-1-yl)sulfonyl)phenyl)-5-(7-methyl-7-((R)-2-methylpyrrolidin-1-yl)-6,7,8,9-tetrahydro-5H-benzo[7]annulen-2-yl)-1H-pyrazolo[3,4-b]pyridine] | 100 to 1000 nM | < 100 nM
